Laboratory results published in PubChem BioAssay (NCI).
Several values for one entry are separate records, joined by “and”; a condition that tells them apart may be missing. Equal values may be shown once.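 Results reflect a 48-hour exposure of cells in 96-well plates to compound at five concentrations. The concentration for 50% growth inhibition is given as GI50. TGI: total growth inhibition.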

Experiments:
Experiment in all cases: NCI tumour cell line growth inhibition, 48 h
[1] = system: NCI-H226 lung
[2] = system: SK-OV-3 ovarian
[3] = system: UACC-62 melanoma
[4] = system: OVCAR-5 ovarian
[5] = system: A498 renal
[6] = system: SF-295 CNS
[7] = system: RPMI-8226 leukemia
[8] = system: UACC-257 melanoma
[9] = system: ACHN renal
[10] = system: LOX IMVI melanoma

| SMILES | TGI [1] | TGI [2] [µM] | TGI [3] | TGI [4] | TGI [5] [µM] | TGI [6] | TGI [7] | TGI [8] | TGI [9] | TGI [10] | GI50 [3] | GI50 [5] | GI50 [7] [µM] | GI50 [8] | GI50 [9] | GI50 [10] |
| --- | --- | --- | --- | --- | --- | --- | --- | --- | --- | --- | --- | --- | --- | --- | --- | --- |
| CC(NNC(=O)c1ccncc1)c1ccc(Cl)c(Cl)c1 (stereo unspecified) | > 100 µM | > 100 | > 100 µM | > 100 µM | > 100 | > 100 µM | > 100 µM | > 100 µM | > 100 µM | > 100 µM |  |  |  |  |  |  |
| CSc1nc(C#N)c(N)n1C | > 100 µM | > 100 | > 100 µM | > 100 µM | > 100 | > 100 µM | > 100 µM | > 100 µM | > 100 µM | > 100 µM |  |  |  |  |  |  |
| COc1ccc2c(c1OC)C(=O)O[C@@H]2[C@H]1c2cc3c(cc2CCN1C)OCO3 | > 100 µM | > 100 | > 100 µM | > 100 µM | > 100 | > 100 µM | > 100 µM | > 100 µM | > 100 µM | > 100 µM |  |  |  |  |  |  |
| COC(=O)/C(=C\c1ccco1)P(=O)(OC)OC | > 100 µM | > 100 | > 100 µM | 31.8 µM | > 100 | 51.4 µM | > 100 µM | > 100 µM | > 100 µM | 71 µM |  |  |  |  |  |  |
| CCOP(=O)(OCC)C1(O)CC(n2cc(C)c(=O)[nH]c2=O)OC1CO (stereo unspecified) | > 100 µM | > 100 | > 100 µM | > 100 µM | > 100 | > 100 µM | > 100 µM | > 100 µM | > 100 µM | > 100 µM |  |  |  |  |  |  |
| COC1=CC(=O)c2c(O)c3c(c(O)c2C1=O)C[C@](C)(O)C[C@@H]3O | 45.6 µM | 41.6 | 4.66 µM | 27.8 µM | 20.1 | 11.5 µM | 40.2 µM | 5.28 µM | 16 µM | 10.1 µM |  |  |  |  |  |  |
| CCOC(=O)C(NC(=O)CC)(Nc1ccc(S(=O)(=O)Nc2nc(C)cc(C)n2)cc1)C(F)(F)F (stereo unspecified) | > 100 µM | > 100 | > 100 µM | > 100 µM | > 100 | > 100 µM | > 100 µM | > 100 µM | > 100 µM | > 100 µM |  |  |  |  |  |  |
| COc1ccc(/C(=N/Nc2nc3ccccc3[nH]2)C(=O)O)cc1 | > 100 µM | > 100 | > 100 µM | > 100 µM | > 100 | > 100 µM | > 100 µM | > 100 µM | > 100 µM | > 100 µM |  |  |  |  |  |  |
| Cn1c2c(c3ccccc31)CCN1C(=O)C3SC21C1C(=O)N(c2ccccc2)C(=O)C31 (stereo unspecified) | > 100 µM | > 100 | > 86.3 µM | > 100 µM | > 89.7 | > 100 µM | > 100 µM | > 69.2 µM | > 100 µM | > 100 µM |  |  |  |  |  |  |
| CN(/N=N/c1nc[nH]c1C(N)=O)C1CCCCC1 | > 100 µM | > 100 | > 100 µM | > 100 µM | > 100 | > 100 µM | > 100 µM | > 100 µM | > 100 µM | > 100 µM |  |  |  |  |  |  |
| ONC1=Nc2ccccc2OCc2cc(Br)c(Br)cc2COc2ccccc2N=C1NO | > 52.7 µM | > 53.1 | 35.7 µM | 42.8 µM | 43.2 | > 53.6 µM | 43.4 µM | 56.6 µM | > 43.3 µM | 45.1 µM |  |  |  |  |  |  |
| Cc1ccc(OCC2OC(n3cnc4c(Cl)ncnc43)CC2Oc2ccc(C)cc2)cc1 (stereo unspecified) | 31.7 µM and 44.1 µM | > 81.1 | 25.9 µM and > 59 µM | 68.5 µM and > 79.7 µM | > 70.8 | 30.2 µM and 38.1 µM | > 25 µM and 22.5 µM | 18.5 µM and 37.1 µM | 24.9 µM and 3.73 µM | 10.8 µM and > 45.9 µM | 9.01 µM and 22.8 µM | 20.4 µM and > 44.5 µM | 3.03 | 6.24 µM and 16 µM | 11.1 µM and 1.98 µM | 2.41 µM and 15 µM |
| Oc1ccc(Cl)cc1C1=N/C(=N\C/N=C2\N=C(c3cc(Cl)ccc3O)CC(c3ccccc3)N2)NC(c2ccccc2)C1 (stereo unspecified) | > 100 µM | > 100 | > 100 µM | > 100 µM | > 100 | > 100 µM | > 100 µM | > 100 µM | > 100 µM | > 100 µM |  |  |  |  |  |  |
| Cc1c(C#N)c2nnn(-c3ccccc3)c(=O)n2c1-c1ccccc1 | > 100 µM | > 29.5 | > 100 µM | > 100 µM | > 25.1 | 8.53 µM | 14.8 µM | > 100 µM | > 100 µM | > 100 µM |  |  |  |  |  |  |
| COc1cc(/C=C2\Cc3cc(OC)c(OC)cc3C2=O)cc(OC)c1 | > 100 µM | > 84.9 | > 89.4 µM | > 100 µM | > 100 | 41.7 µM | > 100 µM | > 100 µM | > 100 µM | > 100 µM |  |  |  |  |  |  |
